The source of these data is patent publication US8541464B2, “Treatment of atrial fibrillation” (HUYA Biosciences International LLC, priority 2009, dated 2013).

A short description of the data set: Plasma concentration in minipig cardiovascular safety study. Type of data set: in vivo. On the procedure: A Swan Ganz (thermodilution catheter) was inserted into the right femoral vein via phlebotomy and advanced into the pulmonary artery for cardiac output measurements. A catheter was inserted in the left femoral artery via an arteriotomy for blood gas determination. Another catheter was inserted in the left femoral vein for blood collection for toxicokinetic evaluation. Finally, an incision was also performed on the left side of the neck to expose the left carotid artery and an electronic dual pressure sensor catheter (Millar) was placed via arteriotomy and advanced into the left ventricle. The catheter was positioned to simultaneously collect left ventricle blood pressure measurements as well as aortic pressure. In addition, a temporary catheter was placed in any of the cephalic veins for administration of Lactated Ringers at 10 mL/kg/hr throughout the course of the experiment.
Following surgical preparation, hemodynamic and electrocardiographic parameters were allowed to stabilize for at least 15 minutes. The vehicle control and test article were then administered, and hemodynamic, electrocardiographic, histamine and PK parameters were monitored.
Peak plasma concentrations of sulcardine sulfate increased with increasing dose. […]

“And” between values parts separate entries of the source, which are not always exact repeats. Equal values may be shown once.

On to sulcardine sulfate, for which the “mean peak plasma concentration” value (90 mg/kg, 15 minute infusion) is 25.6 ug/mL and 56.3 μM. Also, for the setting “minipigs, read-out: Cmax that led to observed side effects such as hypotension”, the Cmax was found to be 13.6 µM.
